Patent US20250281474A1, “PHARMACEUTICAL COMPOSITION FOR TREATING COGNITIVE DECLINE OR FOR TREATING OVERWEIGHTNESS OR OBESITY” (University of the Ryukyus, priority 2021, published 2025)
Where two headings read alike, the source gives them in different places.

How the values were obtained:
AMPAR (CP-AMPAR) = assay: Ca2+ imaging of hippocampal brain slices, AMPA+CTZ application (CP-AMPA reaction), HFD-fed mice; format: cell-based
Method: First, the intracellular calcium concentration ([Ca^2+]i) was directly measured in an acute brain slice of the hippocampus having a perihippocampal region using a mouse obesity model associated with HFD feeding (composition of diet (7) shown in Table 1) for 12 weeks after weaning to track calcium signaling (FIG. 1A: supplementary data moving image 1) in the hippocampus. HFD-fed mice received […] containing 100 μM CTZ (cyclothiazide; […]) applied to EC (entorhinal cortex), CA1 (cornu ammonis 1), CA2, CA3, and DG (dentate gyrus). The F525 normalized before and after application was compared.

CP-AMPAR = assay: Ca2+ imaging of hippocampal brain slices, AMPA+CTZ application, ob/ob mice; format: cell-based, mouse
[1] = Ca2+ indicator; cited from earlier work
NMDA receptor = assay: Ca2+-dependent inactivation of the NMDA receptor, Ca2+ imaging of brain slices; format: cell-based, mouse; conditions: brain slices of mice fed HFD 2 weeks; 3 μM, 60 min; n=3
NMDAR [2] = assay: Ca2+ imaging of hippocampal brain slices, NMDA+glycine application, ob/ob mice; conditions: ob/ob mice orally administered PER; leptin 100 nM
NMDAR [3] = assay: Ca2+ imaging of hippocampal brain slices, NMDA+glycine application (NMDA reaction), HFD-fed mice; format: cell-based, mouse; conditions: HFD mice orally administered PER; leptin 100 nM

NCCCNCCCCNCCCNC(=O)Cc1cccc2ccccc12 [NASPM, N-[3-[[4-[(3-aminopropyl)amino]butyl]amino]propyl]-1-naphthaleneacetamide]
increase in [Ca2+]i via pathological AMPAR (AMPAR (CP-AMPAR)): disappeared | inhibitory effect on CP-AMPAR in EC, CA1, CA2, CA3, DG (CP-AMPAR): significant inhibitory effect

CC(=O)OCOC(=O)CN(CC(=O)OCOC(C)=O)c1ccc(C)cc1OCCOc1cc(-c2c3cc(Cl)c(=O)cc-3oc3cc(OCOC(C)=O)c(Cl)cc23)ccc1N(CC(=O)OCOC(C)=O)CC(=O)OCOC(C)=O [Fluo-3 AM]
Kd [1]: 400 nM

CC(=O)OCOC(=O)CN(CC(=O)OCOC(C)=O)c1ccccc1OCCOc1ccccc1N(CC(=O)OCOC(C)=O)CC(=O)OCOC(C)=O [BAPTA-AM]
inactivation of the NMDA receptor (reactivity to NMDA 50 μM and glycine 10 μM) (NMDA receptor): released the inactivation of the NMDA receptor

Cc1cn2c(n1)Cc1ccc(Cl)cc1C(c1ccc(N)cc1)=N2 [GYKI 47261]
inhibitory effect on CP-AMPAR in EC, CA1, CA2, CA3, DG (CP-AMPAR; ob/ob mice slices, 100 μM, p<0.05 (FIG. 10-1A)): significant inhibitory effect

leptin: hormone that regulates energy expenditure
function of NMDAR in EC, CA1, CA2, CA3, DG (NMDAR [2]): significantly enhanced | function of NMDAR in EC, CA1, CA2, CA3, DG (NMDAR [3]): significantly enhanced
